Data taken from patent US12611387B2, “Compound and composition for inducing neuroprotection” (REST THERAPEUTICS, priority 2020, dated 2026).

How the values were obtained:
[1] = system: Aβ25-35 oligomer-intoxicated mice; experiment: Morris water maze, symptomatic treatment; assay type: in vivo; conditions: symptomatic design (not shown)
Method: (§1) The test compounds were tested for their ability to decrease the cognitive symptoms of Aβ25-35 oligomer-induced neurodegeneration, i.e. their ability to provide symptomatic anti-amnestic treatment (FIGS. 1A and 1B). In brief, to test the symptomatic effect of the test compounds, they were administered 8 days after the icy injection of the Aβ25-35 oligomers, 30 minutes before the YMT and PAT memory tests were conducted or 30 minutes before the test, but after the training session, in the case of the MWT or ORT (FIG. 1A). The Hamlet Test® (FIG. 1B) involves a 2-week training session (4 hr/day) followed by a test (max. 10 min) under water deprivation conditions and under normal conditions; the Aβ25-35 peptide is injected after this first test. […]
This test is used to assess long-term spatial reference memory. […] The animals' swimming behaviour was recorded (Videotrack® software, Viewpoint), and the trajectories, latencies and distances covered were measured. […] Median latency (time taken to find the platform) was calculated for each training day and expressed for the group as the mean latency±standard deviation. […] Each mouse was left in the water for 60 seconds and its swimming behaviour was recorded. The time spent in the north-eastern quadrant, which originally contained the platform (T), was measured and compared to the average time spent in the other quadrants (o).

[2] = system: Aβ25-35 oligomer-intoxicated mice; experiment: Object recognition test, symptomatic treatment; assay type: in vivo; conditions: symptomatic design (not shown)
Method: as §1, with “test. After one week, the compounds are administered and a second test under water deprivation conditions and under normal conditions is performed 30 min after injection.” for “test.”
This test is used to assess recognition memory abilities (Rodriguez Cruz et al., 2017; Maurice et al., 2019). […] The exploratory behaviour, activity and position of the animal's nose were recorded for 10 minutes (Nosetrack® software, Viewpoint, Lissieu, France). The number of contacts with the objects and the duration thereof were measured. […] The exploratory behaviour of each mouse was then also recorded for 10 minutes. […]
An exploration index was calculated using to the following formula: […]

[3] = system: Aβ25-35 oligomer-intoxicated mice; experiment: Hamlet test, symptomatic treatment; assay type: in vivo, C57Bl/6j mice; conditions: 0.3 mg/Kg, symptomatic design
Method: as §1, with “1A).” for “1A). The Hamlet Test® (FIG. 1B) involves a 2-week training session (4 hr/day) followed by a test (max. 10 min) under water deprivation conditions and under normal conditions; the Aβ25-35 peptide is injected after this first test.”
The Hamlet Test® device, with a diameter of 1.2 m, comprises a central square (the agora) and streets that radiate out therefrom and lead to functionalised compartments or houses that allow a physiological function to be met or that enrich the environment. The walls and streets of the hamlet were made of infrared-transparent PVC, the test room was uniformly lit (200 Lux), infrared diodes were placed under the floor of the hamlet and an infrared camera recorded the behaviour of the animals. […]
This test was described by Crouzier et al. (2018 a and b). […] The exploratory behaviour was recorded alongside the time taken to find the Drink house and the number of errors made (number of entries into a street not leading to the Drink house). […] A disorientation index (DI) was calculated for each variable (time to find the drink house, number of errors): […]

Structure (SMILES): NC12CC3CC(C1)CC(CCF)(C3)C2 [FENM, 3-(2-fluoroethyl)adamantan-1-amine]
- anti-amnestic effect in Morris water maze [1]: confirmed
- anti-amnestic effect in object recognition [2]: confirmed
- disorientation index calculated for errors [3]: reduced to the level of those of the untreated, non-intoxicated mice
- disorientation index calculated for latency [3]: reduced to the level of those of the untreated, non-intoxicated mice
